Laboratory results taken from US20250127845A1, “MEDICINAL USES OF OLIGOPEPTIDES IN COMBINATION WITH AN ANTIANDROGEN” (HBC IMMUNOLOGY INC., priority 2022, published 2025).
“And” between values parts separate entries of the source, which are not always exact repeats. Equal values may be shown once.

Columns and labels:
Type in all cases: cell-based, human
LNCaP cells = assay: Clonogenic assay, LNCaP cells; conditions: for relative percent colony survival / minimal inhibitory concentration (MIC) of bicalutamide: LNCaP; for minimal inhibitory concentration (MIC) of bicalutamide: concentration that begins to inhibit colony formation
Description: (§1) Test Solutions. SPH test solutions were prepared by adding 10 μg, 40 μg, or 160 μg of SPH powder to 1 ml of DMEM containing 0.3% FBS+2% DMSO and sonicating for 10 min just prior to use. Bicalutamide, referred to herein as BIC, (Sigma-Aldrich, Catalog No. B9061) test solutions were prepared by adding 0.43 or 4.3 μg to 1 ml (1 μM and 10 μM) of DMEM containing 0.3% FBS+2% DMSO and sonicating for 10 min just prior to use.
(§2) Cell Culture. The C4 subline (CRL-3313™, RRID: CVCL 4783), which was derived from the human prostate carcinoma cell line LNCaP, was obtained from ATCC (Manassas, VA). C4, which is referred to herein as LNCaP, is an exemplary androgen receptor-positive (AR+ve) cell line that has an epithelial-like morphology and a low metastatic potential. The PC-3 cell line (CRL-1435, RRID: CVCL_0035) was obtained from ATCC (Manassas, VA). PC-3 is an exemplary androgen receptor-negative (AR−ve) cell line that has an epithelial morphology and a high metastatic potential. The Vertebral-Cancer of the Prostate (VCaP) cell line was obtained from Sigma-Aldrich, USA (Catalog No. 06020201). VCaP is a human cell line with an epithelial morphology that was established from a metastatic prostate cancer lesion (Korenchuk et al., In Vivo, 15(2):163˜168, 2001). VCaP cells are androgen receptor-positive and express high levels of prostate-specific antigen. The VCaP-EnzR cell line was also obtained from Sigma-Aldrich, USA (Catalog No. SCC421). […] VCaP-EnzR cells are enzalutamide-resistant and therefore are a suitable model for studying castration-resistant prostate cancer. All cell lines were cultured in RPMI1640 supplemented with 2 mmol/L L-glutamine. 100 U/mL penicillin, […] streptomycin, and 10% heat-inactivated fetal bovine serum. All cells were certified negative for Mycoplasma.
(§3) Clonogenic Assay. Confluent cells were trypsinized and seeded at densities ranging from 3000 to 5000 cells in 10 cm Petri dishes, depending on the cell line, as recommended in the ATCC or Sigma-Aldrich product sheets. […] Treatments were applied daily for 5 days without media changes. The colonies were allowed to develop over 12 days, stained with crystal violet and automatically counted using a TC20 Automated Cell Counter (Bio Rad, Hercules, CA). Each assay was internally controlled using untreated cells (cell media+0.1% DMSO). Relative plating efficiencies were expressed as percentages relative to the plating efficiency of untreated cells and reported as the relative percent colony survival value. All experiments were performed in triplicate.
(§4) All oligopeptides were tested in combination with BIC or ENZ in clonogenic assays. […] SPH absent wells (DMSO 0.04%) were used as the negative control. All experiments were run in triplicate.

PC3 cells = assay: Clonogenic assay, PC3 cells; conditions: for decrease in survival compared to 10 μM bicalutamide monotreatment: 10 μM oligopeptide with 10 μM bicalutamide
Description: as §1, §2, §3, §4

[1] = test system: ferritin heavy chain 1 (FTH1) mRNA; assay: FTH1 gene expression by qRT-PCR in LNCaP cells
Description: (§5) Gene Expression. LNCaP, PC-3, VCaP, and VCaP-EnzR cells were seeded in 24-well plates and maintained in RPMI1640 medium supplemented with 2 mmol/L L-glutamine. 100 U/mL penicillin, […] streptomycin, and 10% heat-inactivated fetal bovine serum at 37° C. in a humidified 5% CO2 atmosphere. […] SPH absent wells (DMSO 0.04%) were used as the negative control. All experiments were run in triplicate.
(§6) Samples were studied for expression of the ferritin heavy chain 1 (FTH1) and transferrin receptor 1 ([…]) genes. Total RNA was extracted from cell pellets using the UPzol reagent (Biotechrabbit), followed by DNAse treatment (DNAse TURBO) according to the manufacturers' protocols. Complementary DNA (cDNA) was synthesized with the High Capacity cDNA Reverse Transcription Kit (Applied Biosystems) using random hexamers. Gene expression levels were measured by qRT-PCR.
(§7) 1 μl of cDNA (corresponding to 50 ng of reverse transcribed RNA) was amplified by Qpcr (QuantStudio™ 6 Flex Real-Time PCR System), using TaqMan™ Universal PCR Master Mix (Catalog No. 4304437) and a TaqMan™ assay (Roche Molecular Systems, Inc., Pleasanton, CA). FTH1 and TFRC gene expression was estimated relative to expression of the housekeeping gene, beta-actin (ACTB), following the standard formula: 2-ΔCt. TaqMan probe IDs used include: (i) FTH1, Hs01694011_s1; (ii) TFRC, Hs00951083_m1; and (iii) ACTB, Hs01060665_g1. […]

[2] = test system: transferrin receptor 1 (TFRC) mRNA; assay: TFRC gene expression by qRT-PCR in LNCaP cells
Description: as §5, §6, §7

[3] = test system: ferritin heavy chain 1 (FTH1) mRNA; assay: FTH1 gene expression by qRT-PCR in PC3 cells
Description: as §5, §6, §7

[4] = test system: transferrin receptor 1 (TFRC) mRNA; assay: TFRC gene expression by qRT-PCR in PC3 cells
Description: as §5, §6, §7

VCaP cells = assay: Clonogenic assay, VCaP cells; conditions: 10 μM oligopeptide with […] enzalutamide, p<0.01
Description: as §1
(§8) Cell Culture. The C4 subline (CRL-3313™, RRID: CVCL 4783), which was derived from the human prostate carcinoma cell line LNCaP, was obtained from ATCC (Manassas, VA). C4, which is referred to herein as LNCaP, is an exemplary androgen receptor-positive (AR+ve) cell line that has an epithelial-like morphology and a low metastatic potential. The PC-3 cell line (CRL-1435, RRID: CVCL_0035) was obtained from ATCC (Manassas, VA). PC-3 is an exemplary androgen receptor-negative (AR−ve) cell line that has an epithelial morphology and a high metastatic potential. The Vertebral-Cancer of the Prostate (VCaP) cell line was obtained from Sigma-Aldrich, USA (Catalog No. 06020201). […]
(§9) Clonogenic Assay. […] The colonies were allowed to develop over 12 days, stained with crystal violet and automatically counted using a TC20 Automated Cell Counter (Bio Rad, Hercules, CA). […]

VCaP-EnzR cells = assay: Clonogenic assay, VCaP-EnzR cells; conditions: 10 μM oligopeptide with […] μM enzalutamide, p<0.001
Description: as §1, §8, §9

[5] = test system: ferritin heavy chain 1 (FTH1) mRNA; assay: FTH1 gene expression by qRT-PCR in VCaP cells; conditions: oligopeptide at 10 μM with […] ENZ
Description: as §5, §6, §7

[6] = test system: transferrin receptor 1 (TFRC) mRNA; assay: TFRC gene expression by qRT-PCR in VCaP cells; conditions: oligopeptide at 10 μM with […] ENZ
Description: as §5, §6, §7

[7] = test system: ferritin heavy chain 1 (FTH1) mRNA; assay: FTH1 gene expression by qRT-PCR in VCaP-EnzR cells; conditions: oligopeptide at 10 μM with […] μM ENZ
Description: as §5, §6, §7

[8] = test system: transferrin receptor 1 (TFRC) mRNA; assay: TFRC gene expression by qRT-PCR in VCaP-EnzR cells; conditions: oligopeptide at 10 μM with […] μM ENZ
Description: as §5, §6, §7

[9] = 1 μM BIC alone, relative to ACTB
[10] = oligopeptide at 10 μM with 0.4 μM BIC
[11] = oligopeptide at 10 μM with 0.4 μM BIC, listed as FT-005-B
[12] = oligopeptide at 10 μM with 10 μM BIC
[13] = oligopeptide at 10 μM with 10 μM BIC, listed as FT-005-B
[14] = oligopeptide at 10 μM with 10 μM BIC, listed as FT-007-B
[15] = oligopeptide at 10 μM with 0.4 μM BIC, listed as FT-006-B
[16] = oligopeptide at 10 μM with 0.4 μM BIC, listed as FT-008-B
[17] = oligopeptide at 10 μM with 10 μM BIC, listed as FT-008-B
[18] = oligopeptide at 10 μM with 10 μM BIC, listed as FT-002-B

| Compound | decrease in survival compared to 10 μM bicalutamide monotreatment (PC3 cells; PC3) | decrease in cell survival compared to […] enzalutamide with 160 SPH (VCaP cells) | relative survival (VCaP-EnzR cells) [%] | FTH1 Fold Change, Average [1, 10] | TFRC Fold Change, Average [2, 10] | FTH1 Fold Change, Average [3, 12] | TFRC Fold Change, Average [4, 12] | FTH1 Fold Change, Average [5] | TFRC Fold Change, Average [6] | FTH1 Fold Change, Average [7] | TFRC Fold Change, Average [8] | further results |
| --- | --- | --- | --- | --- | --- | --- | --- | --- | --- | --- | --- | --- |
| CC(O)(CS(=O)(=O)c1ccc(F)cc1)C(=O)Nc1ccc(C#N)c(C(F)(F)F)c1 (centres unmarked) [BIC, bicalutamide, reference compound] |  |  |  |  |  |  |  |  |  |  |  | IC50 (LNCaP cells; Homo sapiens, LNCaP clonogenic assay, read-out: IC50 of bicalutamide): 0.4 µM; relative percent colony survival (LNCaP cells; 0.5 μM BIC alone): 85%; relative percent colony survival (LNCaP cells; 1.0 μM BIC alone): 25%; minimal inhibitory concentration (MIC) of bicalutamide (LNCaP cells): 1 µM; minimal inhibitory concentration (MIC) of bicalutamide (LNCaP cells; listed as bicalutamide): 0.5 µM; IC50 (PC3 cells; Homo sapiens, PC-3, PC3 clonogenic assay, read-out: IC50 of bicalutamide): 10 µM; relative percent colony survival (PC3 cells; PC3, 10 μM BIC alone): 52%; minimal inhibitory concentration (MIC) of bicalutamide (PC3 cells; PC3, concentration that begins to inhibit colony formation): 10 µM; FTH1 Fold Change (single replicates) [1, 9]: 1.0 (2×) and 1.1; FTH1 Fold Change, Average [1, 9]: 1.0; TFRC Fold Change (single replicates) [2, 9]: 1.0 (2×) and 1.2; TFRC Fold Change, Average [2, 9]: 1.1; FTH1 Fold Change (single replicates) ([3]; 10 μM BIC alone): 0.9 and 1.0 and 1.2; FTH1 Fold Change, Average ([3]; 10 μM BIC alone): 1.0; TFRC Fold Change (single replicates) ([4]; 10 μM BIC alone): 1.0 and 1.1 and 1.2; TFRC Fold Change, Average ([4]; 10 μM BIC alone): 1.1 |
| LDEESGEP [FT-005, synthetic oligopeptide; -B / -E: tested with bicalutamide / enzalutamide] | approximately 70% | approximately 40% | 11 | 2.2 | 0.6 | 2.1 | 0.6 | 2.3 | 0.6 | 3.2 | 0.5 | FTH1 Fold Change (single replicates) [1, 11]: 2.2 (2×) and 2.3; TFRC Fold Change (single replicates) [2, 11]: 0.7 and 0.6 (2×); FTH1 Fold Change (single replicates) [3, 13]: 2.2 and 2.1 (2×); TFRC Fold Change (single replicates) [4, 13]: 0.7 and 0.5 (2×) |
| PREESDKP [FT-007] |  |  |  |  |  | 1.9 | 0.7 | 1.9 | 0.8 |  |  | FTH1 Fold Change (single replicates) [3, 14]: 1.9 (2×) and 2.0; TFRC Fold Change (single replicates) [4, 14]: 0.6 and 0.8 (2×) |
| REESDKPMY [FT-006] |  |  |  | 1.8 | 0.9 |  |  |  |  | 2.6 | 0.6 | FTH1 Fold Change (single replicates) [1, 15]: 1.9 (2×) and 1.6; TFRC Fold Change (single replicates) [2, 15]: 0.9 (2×) and 0.8 |
| REESGEL [FT-008] |  |  |  | 2.0 | 0.8 | 1.8 | 0.9 | 2.2 | 0.7 | 2.5 | 0.6 | FTH1 Fold Change (single replicates) [1, 16]: 1.8 and 1.9 and 2.2; TFRC Fold Change (single replicates) [2, 16]: 0.8 (2×) and 0.9; FTH1 Fold Change (single replicates) [3, 17]: 1.8 (2×) and 1.9; TFRC Fold Change (single replicates) [4, 17]: 0.8 and 0.9 (2×); TFRC Fold Change (single replicates) [6]: 0.7 |
| REESGEP [FT-002, synthetic oligopeptide; -B / -E: tested with bicalutamide / enzalutamide] | approximately 70% | approximately 40% | 11 | 2.0 | 0.7 | 2.0 | 0.7 | 2.2 | 0.6 | 3.6 | 0.5 | FTH1 Fold Change (single replicates) ([1]; oligopeptide at 10 μM with 0.4 μM BIC, listed as FT-002-B): 2.1 (2×) and 1.9; TFRC Fold Change (single replicates) [2, 10]: 0.7; FTH1 Fold Change (single replicates) [3, 18]: 2.0 (2×) and 2.1; TFRC Fold Change (single replicates) [4, 18]: 0.7 and 0.8 and 0.6 |
